Our source for the EC50 and Ki values is patent US20150274658A1, “THERAPEUTIC LACTAMS” (Allergan, Inc., priority 2014, published 2015).

Experiment [1] addresses T1, EP2 (Homo sapiens, UniProt P43116). The experiment can be described thus: EP2 cAMP functional assay. The experiment is classed as cell-based. An excerpt:
(§1) U.S. patent application Ser. No. 11/553,143, filed on Oct. 26, 2006, incorporated by reference herein, describes the methods used to obtain the in vitro data in the table below.

Experiment [2] addresses T1, EP2. As to the kind of experiment: EP2 binding (Ki).
From the text: as §1

T1 sequence (P43116 whole entry): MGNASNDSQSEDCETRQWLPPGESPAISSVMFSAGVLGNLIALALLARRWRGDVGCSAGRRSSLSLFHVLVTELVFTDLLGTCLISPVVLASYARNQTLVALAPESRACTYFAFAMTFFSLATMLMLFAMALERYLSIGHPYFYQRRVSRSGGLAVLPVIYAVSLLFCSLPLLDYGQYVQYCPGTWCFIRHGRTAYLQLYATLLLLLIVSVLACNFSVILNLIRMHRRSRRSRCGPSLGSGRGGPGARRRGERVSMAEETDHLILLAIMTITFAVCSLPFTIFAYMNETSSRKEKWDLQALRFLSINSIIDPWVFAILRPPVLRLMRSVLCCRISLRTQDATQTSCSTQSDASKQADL

In experiment [1], `CCCCCC(O)c1ccc(N2C(=O)C(C)C[C@@H]2COCc2ccc(C(=O)O)s2)cc1` (single isomer, unassigned) [Example 1] registered an EC50 of 233 nM.

In experiment [2], `CCCCCC(O)c1ccc(N2C(=O)C(C)C[C@@H]2COCc2ccc(C(=O)O)s2)cc1` (single isomer, unassigned) [Example 2] returned a Ki of more than 10000 nM.

Usually EC50 stands for the concentration needed to bring the measured effect to its halfway point. Read a low EC50 as greater potency. What is called Ki is a dissociation constant, usually derived from enzyme kinetics or from competition with a known ligand.
